The target in data set [1] is ERα receptor (Homo sapiens (Human), UniProt P03372). Briefly: PRα induction assay in MCF7 cells (ERα agonism). Format: cell-based. The conditions noted are these: MCF7 breast cancer cells. Here is the method: PRα Induction Assay in MCF7 Cells
The purpose of the following PRα induction assay is to determine whether a test compound has agonistic activity against ERα receptor (an agonist would be expected to activate the receptor).
Culture MCF7 (purchased from ATCC HTB-22) in DMEM media supplemented with 10% FBS, 0.01 mg/mL human insulin 1 and 1% penicillin/streptomycin antibiotics and plate the cells (prior to becoming 70% confluent) in 384-well flat-bottom plates at a density of 4,000 cells per well in 20 μL volume in DMEM phenol red free media containing 10% FBS (charcoal stripped). Incubate the cells overnight in a cell culture incubator (5% CO2, 95% relative humidity at 37° C.) and allow the cells to attach to the plate. The following day, dose the cells with test compound. Use an Echo 555 acoustic dispenser to prepare compound serial dilutions (1:3) in a range from 6 μM to 0.0003 μM. Dose the cells with the addition of the test compound (5 μL) from the serial dilution plate to the cell plate producing a final DMSO concentration of 0.2% with a final concentration of the test compound dose range between 2 and 0.0001 μM. For the maximum point use media containing 0.2% of DMSO and for the minimum point, use fulvestrant diluted at […] final concentrations in the growth media containing 0.2% DMSO. After dosing with the test compound, incubate the cell plates at 37° C. and 5% CO2 for 24 hours. Fix the cells by adding 14% para-formaldehyde (10 μL) for 30 minutes at room temperature. Wash cells once with PBS (20 μL) and incubate with PBS (20 μL) containing 0.5% (v/v) TWEEN® 20 for 1 hour. […]
The following day, wash cells with PBS 0.05% TWEEN® 20 (2×20 μL) and incubate with secondary antibody (20 μL/well) (1:1000 dilution, Goat anti-rabbit IgM ALEXA FLUOR™ 488) in PBS 1% BSA for 105 minutes at room temperature. […] Scan plates with ACUMEN EXPLORER™ [Laser-scanning fluorescence microplate cytometer manufactured by TTP LABTECH LTD] to measure PRα. […]

The nature of data set [2]: Rat oral bioavailability assay. Format: in vivo. Conditions: plasma, Sprague-Dawley rats, IV 1 mg/kg, PO 10 mg/kg, read-out: oral bioavailability (% F). Here is the method:
Rat Oral Bioavailability Assay
Administer the test compound to Sprague-Dawley rats IV at 1 mg/kg (using vehicles of either: 20% CAPTISOL® in 25 mM sodium phosphate buffer, pH2 quantum satis; or 25% DMA, 15% EtOH, 10% propylene glycol, 25% 2-pyrrolidone, and 25% purified water) and PO at 10 mg/kg (using a vehicle of 1% hydroxyethyl cellulose, 0.25% polysorbate 80, 0.05% Antifoam 1510-US, and purified water quantum satis). Collect serial blood samples at 0.08, 0.25, 0.5, 1, 2, 4, 8, and 12 hours post dose for IV bolus and at 0.25, 0.5, 1, 2, 4, 8, and 12 hours post dose after oral administration. After treatment with an EDTA […], obtain plasma by centrifugation and store at −70° C. until analysis by LC-MS/MS. Determine the test compound concentration in plasma and upload into the Watson LIMS™ system where noncompartmental analysis is used to calculate Area Under the Curve (AUC) for both IV and PO arms. Calculate oral bioavailability (% F) via the following equation, % F=(AUCPO×DoseIV)/(AUCIV×DosePO)×100.

ERα receptor, sequence (P03372 whole entry): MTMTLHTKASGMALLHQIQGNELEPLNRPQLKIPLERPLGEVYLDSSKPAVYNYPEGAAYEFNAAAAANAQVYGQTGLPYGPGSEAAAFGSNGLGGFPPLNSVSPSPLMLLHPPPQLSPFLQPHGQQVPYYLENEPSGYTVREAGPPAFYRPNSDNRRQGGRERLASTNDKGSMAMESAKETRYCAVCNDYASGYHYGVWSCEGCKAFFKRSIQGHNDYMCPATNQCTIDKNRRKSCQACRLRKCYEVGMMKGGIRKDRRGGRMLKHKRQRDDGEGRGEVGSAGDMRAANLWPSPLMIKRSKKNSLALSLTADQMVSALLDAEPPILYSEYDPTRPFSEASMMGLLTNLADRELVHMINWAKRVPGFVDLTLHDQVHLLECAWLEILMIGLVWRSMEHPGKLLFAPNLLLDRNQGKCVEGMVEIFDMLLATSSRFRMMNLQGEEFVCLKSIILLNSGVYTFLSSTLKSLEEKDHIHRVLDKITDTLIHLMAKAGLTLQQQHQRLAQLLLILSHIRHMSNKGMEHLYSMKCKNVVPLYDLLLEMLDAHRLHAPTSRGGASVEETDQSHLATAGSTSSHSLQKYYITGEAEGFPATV

With `Oc1ccc2c3c(cnc2c1)-c1ccc(C(F)(F)F)cc1OC3c1ccc(OCCN2CC(CF)C2)cc1` (racemic) [Example 1, Racemic 5-(4-{2-[3-(Fluoromethyl)azetidin-1-yl]ethoxy}phenyl)-8-(trifluoromethyl)-5H-[1]benzopyrano[4,3-c]quinolin-2-ol], the “agonistic activity (PRα induction)” value in data set [1] is “no significant agonistic activity”. As for `Oc1ccc2c3c(cnc2c1)-c1ccc(C(F)(F)F)cc1OC3c1ccc(OCCN2CC(CF)C2)cc1` (single isomer, unassigned; isomer 1) [Example 1A, 5-(4-{2-[3-(Fluoromethyl)azetidin-1-yl]ethoxy}phenyl)-8-(trifluoromethyl)-5H-[1]benzopyrano[4,3-c]quinolin-2-ol, Isomer 1], the “agonistic activity (PRα induction)” value in data set [1] is on record as “no significant agonistic activity”. In the case of `Oc1ccc2c3c(cnc2c1)-c1ccc(C(F)(F)F)cc1OC3c1ccc(OCCN2CC(CF)C2)cc1` (single isomer, unassigned; isomer 2) [Example 1B, 5-(4-{2-[3-(Fluoromethyl)azetidin-1-yl]ethoxy}phenyl)-8-(trifluoromethyl)-5H-[1]benzopyrano[4,3-c]quinolin-2-ol, Isomer 2], the “agonistic activity (PRα induction)” value in data set [1] is recorded as “no significant agonistic activity”. Besides, the bioavailability in data set [2] is roughly 50%.

Values taken from patent US11117902B2, “Selective estrogen receptor degraders” (Eli Lilly and Company, priority 2018, dated 2021).
